What was measured:
CYP2C19 = target: T1, CYP2C19 (Homo sapiens, UniProt P33261); experiment: P450-Glo CYP inhibition assay, CYP2C19; assay type: in vitro ADME
T1 construct: purchased Promega V9880
Procedure: The potential for CYP450 inhibition (CYP1A2, 2C9, 2C19, 2D6, and […]) was assessed using Promega P450-Glo^TM CYP450 assay systems. Luciferin-ME served as the substrate for CYP1A2, and the inhibitor α-naphthoflavone was used as a positive control. Luciferin-H was used as the substrate for CYP2C9, and the inhibitor sulfaphenazole was used as a positive control. Luciferin-H EGE was selected as the substrate for CYP2C19, whereas the inhibitor amitriptyline served as a positive control. Luciferin-ME EGE was used as the substrate for CYP2D6, whereas the inhibitor quinidine served as a positive control. Luciferin-BE was used as the substrate for CYP3A4, whereas the inhibitor ketoconazole was used as a positive control. The assays were performed using the excitation and emission wavelengths recommended by the manufacturer. Briefly, a CYP enzyme and a P450-Glo™ substrate were combined in potassium phosphate (0.1 M KPO4) buffer, with or without a test compound of interest, and […]. The reaction was initiated by adding two volumes of 2 times concentrated NADPH regeneration system. […] Luminescence was subsequently measured using a Tecan Infinite M1000 PRO microplate reader (Tecan Group Ltd., Switzerland). The percent inhibition was calculated relative to that of the positive control at a fixed concentration. […]

BMX = target: T2, BMX (Homo sapiens, UniProt P51813); experiment: HotSpot kinase enzymatic assay, BMX; assay type: biochemical
T2 construct: purchased Reaction Biology Corporation
T2 sequence (P51813 1-675): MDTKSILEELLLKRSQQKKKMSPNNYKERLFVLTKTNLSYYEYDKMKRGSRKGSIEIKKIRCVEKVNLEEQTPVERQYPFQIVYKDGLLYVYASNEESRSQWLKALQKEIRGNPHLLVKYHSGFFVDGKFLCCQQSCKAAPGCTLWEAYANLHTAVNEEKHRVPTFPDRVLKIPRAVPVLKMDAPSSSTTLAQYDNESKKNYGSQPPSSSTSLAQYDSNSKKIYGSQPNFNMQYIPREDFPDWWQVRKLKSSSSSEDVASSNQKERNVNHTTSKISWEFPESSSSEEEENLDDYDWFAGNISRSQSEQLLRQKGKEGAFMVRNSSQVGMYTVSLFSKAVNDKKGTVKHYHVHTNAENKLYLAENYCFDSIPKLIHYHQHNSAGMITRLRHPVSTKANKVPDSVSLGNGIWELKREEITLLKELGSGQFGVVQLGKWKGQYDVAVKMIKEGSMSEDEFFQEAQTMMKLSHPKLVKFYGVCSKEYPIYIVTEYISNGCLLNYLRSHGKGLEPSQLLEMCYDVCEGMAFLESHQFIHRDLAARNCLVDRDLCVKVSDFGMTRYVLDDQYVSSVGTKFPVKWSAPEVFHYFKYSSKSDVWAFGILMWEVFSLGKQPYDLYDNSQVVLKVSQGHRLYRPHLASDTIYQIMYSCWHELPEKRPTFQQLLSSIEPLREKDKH
Procedure: Therefore, efforts have focused on developing new compounds with good selectivity profiles. […] Compound 8 was selective against BTK. The biochemical activities of compound 8 differed among TEC family kinases. […] The inhibitory potential of compound 8 differed between members of the EGFR family. […] The inhibitory activity of compound 8 against JAK3 was also low.
Kinase enzymatic assays for BTK, BMX, TXK, TEC, ITK, EGFR, ERBB2, ERBB4, and JAK3 were performed at Reaction Biology Corporation (www.reactionbiology.com, Malvern, PA, USA) using the HotSpot assay platform. Briefly, specific kinase/substrate pairs and the required cofactors were prepared in a reaction buffer comprising 20 mM HEPES (pH 7.5), 10 mM MgCl2, 1 mM EGTA, 0.02% Brij35, 0.02 mg/mL BSA, 0.1 mM Na3VO4, 2 mM DTT, and 1% DMSO. The compounds were added to the reaction mixture and allowed to incubate. Approximately 20 min later, a mixture of ATP (Sigma-Aldrich, St. Louis, MO, USA) and ^33P ATP (PerkinElmer, Waltham, MA, USA) was added to the reaction mixture at a final concentration of 10 μM. The reactions were performed at room temperature for 120 min; subsequently, the reactions were spotted onto P81 ion exchange filter papers (Whatman Inc., Maidstone, UK). Any unbound phosphate was removed by thoroughly washing the filter papers with 0.75% phosphoric acid. […]

T1 sequence (P33261 whole entry): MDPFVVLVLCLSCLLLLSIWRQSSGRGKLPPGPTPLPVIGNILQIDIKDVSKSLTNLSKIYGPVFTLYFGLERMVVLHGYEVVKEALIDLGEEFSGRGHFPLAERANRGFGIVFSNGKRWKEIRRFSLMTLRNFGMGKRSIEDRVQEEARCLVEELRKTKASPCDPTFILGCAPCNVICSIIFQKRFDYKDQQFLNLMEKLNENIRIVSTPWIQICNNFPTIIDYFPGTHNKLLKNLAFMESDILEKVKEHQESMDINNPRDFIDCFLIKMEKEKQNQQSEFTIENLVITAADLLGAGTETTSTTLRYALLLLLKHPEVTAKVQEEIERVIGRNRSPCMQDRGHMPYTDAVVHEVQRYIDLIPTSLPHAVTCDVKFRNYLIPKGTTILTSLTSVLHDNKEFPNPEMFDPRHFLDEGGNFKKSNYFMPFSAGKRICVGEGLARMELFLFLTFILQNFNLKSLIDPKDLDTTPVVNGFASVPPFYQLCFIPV

In the case of `C=CC(=O)O[C@H]1Cc2cc3ccc(=O)oc3cc2OC1(C)C` [Compound 8, (7S)-(+)-Acrylic acid, 8,8-dimethyl-2-oxo-6,7-dihydro-2H,8H-pyrano [3,2-g]chromen-7-yl ester], the “CYP2C19 inhibition (in words)” value (CYP2C19) is reported as “moderately inhibited”, the “CYP inhibition 2C19” value (CYP2C19; % inhibition of human CYP isozymes at 10 μM) is reported as 48.2% and the “inhibitory activity against BMX (in words)” value (BMX) is reported as “strong inhibitory activity”. For the same compound, the inhibition at 10 µM (BMX; 10 µM, mean of two experiments) was 95.4%.
